Read-outs that look alike come from different tables or passages of the source. Ends that are not written are not given here.
Legend:
[1] = test system: Normal (non-cancer) human lung fibroblast cells (WI-38); experiment: MTT assay of WI-38 cells; assay type: cell-based; details: WI-38 normal fibroblasts, treated 1 hour, MTT 4 hours
Protocol: Normal (non-cancer) human lung fibroblast cells (WI-38) were also treated with the 9R, 9S1, and 120 peptides. WI-38 cells were treated with the peptides for 1 hour and followed by MTT for 4 hours. Although the treated cells show no decrease in MTT absorbance, this may have been due to the cells being plated at lower concentration, and may not have been actively dividing.

mice = details: cited from earlier work
LnCaP cells [2] = details: for IC50: 48 h
Protocol: LnCaP cells were treated with peptides 9R, 9S1, 120 (SEQ ID NO: 120) and a vehicle control. LnCaP cells were treated with the peptides for 48 hours, and incubated with MTT for 4 hours. For background level of absorbance, media alone was measured on the plate. […] Several concentrations of peptides were used to determine the IC50 of these peptides.
These cells were treated with an identical concentration (30 μM) of peptoprime peptide 120.

LnCaP cells [3] = assay type: cell-based; details: 24 h
Description: The HCS MITOCHONDRIAL HEALTH KIT™ (available from Invitrogen) includes a dye that is taken up by healthy, actively respiring mitochondria. The uptake of this dye can be visualized with fluorescent confocal microscopy. FIGS. 9A-9C show control LnCaP cells treated only with the vehicle control (i.e., no peptide). The Hoechst dye stained nuclei of cells, whether they were alive or dead (Excitation/Emission maxima—Hoechst 33342: 350/461 nm). FIG. 9A is a panel showing all nuclei stained with Hoechst dye. FIG. 9B is a panel showing healthy mitochondria stained with MitoHealth dye. FIG. 9C is a panel showing the merged images of 9A and 9B. The mitochondrial health dye incorporated into the cells depends on mitochondrial membrane potential (excitation/emission maxima—MitoHealth stain: 550/580 nm). The HCS MITOCHONDRIAL HEALTH KIT™ (Invitrogen) was developed for simultaneous quantitative measurements of two cell health parameters in the same cell: mitotoxicity and cytotoxicity. The MitoHealth stain accumulated in mitochondria in live cells proportional to the mitochondrial membrane potential.
A range of peptide concentrations was applied to the LnCap cells. […] The cells were treated for 24 hrs.
A range of peptide concentrations was used to treat LnCap cells. […] The cells were incubated with peptide for 24 hrs.

[4] = test system: paclitaxel-resistant LnCap cells; experiment: MTT assay of paclitaxel-resistant LnCap cells (reversal of paclitaxel resistance); assay type: cell-based; details: paclitaxel alone, even at 600 μM (data not shown)
Protocol: The 9R peptide (SEQ ID NO: 200; labeled “9” in FIG. 16) was tested for its ability to reverse paclitaxel (TAXOL™) resistance in paclitaxel-resistant LnCap cells.
Paclitaxel-resistant LnCaP cells were treated with the peptides for 120 hours, and incubated with MTT for 4 hours. The paclitaxel-resistant LnCap cells were resistant to paclitaxel even at 600 μM concentration (data not shown). Referring to FIG. 16, the paclitaxel-resistant LnCap cells were resistant to 9R at the 100 μM level (labeled **). However, the combination of paclitaxel (at little as 30 nM) and 9R (at little as 5 μM) killed the paclitaxel-resistant LnCap cells (labeled ***).

| Molecule | MTT absorbance [1] | IC50 (LnCaP cells [2]) [µM] | IC50 (LnCaP cells [3]) [µM] | other results |
| --- | --- | --- | --- | --- |
| WFMHW [Peptide 120, WFMHW] | no effect | – | – | – |
| AQGV | – | – | – | recuperation after lethal exposure to radiation (mice): shown promise in accelerating the recuperation |
| WCMNW [Peptide 9S1, WCMNW] | no decrease | ~30 | 30 | – |
| CC(=O)O[C@H]1C(=O)[C@@]2(C)[C@H]([C@H](OC(=O)c3ccccc3)[C@]3(O)C[C@H](OC(=O)[C@H](O)[C@@H](NC(=O)c4ccccc4)c4ccccc4)C(C)=C1C3(C)C)[C@]1(OC(C)=O)CO[C@@H]1C[C@@H]2O [paclitaxel] | – | – | – | sensitivity of paclitaxel-resistant LnCap cells (MTT) [4]: resistant |
| RRRRRNWMWC [Peptide 9R, RRRRRNWMWC] | no decrease | ~50 | 100 | – |
| OO [peroxide, Hydrogen peroxide, reference compound] | – | – | – | MTT absorbance value compared with control treatment cells (LnCaP cells [2]; LnCaP, treated 48 hours, MTT 4 hours): marked decrease |
